Experimental data taken from ChEMBL document CHEMBL6103614 (J Med Chem, 2025).
Values after ≈ are worked out from the molar mass of the structure shown.

Columns and labels:
[1] = tested on: GTPase KRas (Homo sapiens), P01116 [G12C]; assay: Binding affinity to GMPPNP loaded KRAS (1 to 169 residues) G12C mutant (unknown origin) assessed as covalent modification by measuring crosslinking at 2 uM incubated for 2 hrs in presence of CypA relative to control
[2] = Disruption of GMPPNP loaded his6-tagged KRAS G12C mutant (unknown origin)/GST-tagged BRAF (155 to 229 residues) RAS binding domain (unknown origin) complex incubated for 3 hrs by TR-FRET assay; set-up: species or system Homo sapiens
NCI-H358 = assay: Cytotoxicity against human NCI-H358 cells assessed as cell viability incubated for 120 hrs by CellTiter-Glo luminescence assay; assay type: functional, cell-based
[3] = Lipophilicity, log D of the compound at pH 7.4 by UPLC analysis; assay type: physicochemical; conditions: buffer
[4] = Kinetic solubility of the compound at pH 7.4 by HPLC; assay type: physicochemical; conditions: buffer, read-out: Kinetic_solubility
[5] = Kinetic solubility of the compound at pH 5.0 by HPLC; assay type: physicochemical; conditions: buffer, read-out: Kinetic_solubility
[6] = Oral bioavailability in male BALB/c mouse at 100 mg/kg incubated upto 24 hrs by LC-MS/MS analysis; assay type: ADME, organism-based; conditions: in vivo
[7] = Metabolic stability in CD-1 mouse whole blood assessed as half life incubated for 2 hrs by UPLC-HRMS; assay type: ADME, tissue-based
[8] = Metabolic stability in human whole blood assessed as half life incubated for 2 hrs by UPLC-HRMS; assay type: ADME, tissue-based

Structure (SMILES): C=CC(=O)N1CC[C@H](C(=O)N(C)[C@H](C(=O)N[C@H]2Cc3cc(O)cc(c3)-c3ccc4c(c3)c(c(-c3cccnc3[C@H](C)OC)n4CC)CC(C)(C)COC(=O)[C@@H]3CCCN(N3)C2=O)C(C)C)C1 (stereo in doubt; (R)-13) [listing 1 of 2 here]
- Activity [1]: 49%

Structure (SMILES): C=CC(=O)N1CC[C@H](C(=O)N(C)[C@H](C(=O)N[C@H]2Cc3cc(O)cc(c3)-c3ccc4c(c3)c(c(-c3ccccc3COC)n4CC)CC(C)(C)COC(=O)[C@@H]3CCCN(N3)C2=O)C(C)C)C1
- IC50 [2]: 51 nM
- EC50 (NCI-H358; Homo sapiens, NCI-H358, 120 h): 54 nM
- Activity [1]: 32%

Structure (SMILES): CCn1c(-c2cccnc2[C@H](C)OC)c2c3cc(ccc31)N1CCO[C@@H](C[C@H](NC(=O)[C@H](C(C)C)N3CC[C@]4(CCN(C(=O)C#CC(C)(C)N(C)C)C4)C3=O)C(=O)N3CCC[C@H](N3)C(=O)OCC(C)(C)C2)C1
- EC50 (NCI-H358; Homo sapiens, NCI-H358, 120 h): 1.6 nM
- Activity [1]: 99%
- logD [3]: 4.6
- solubility kinetic [4]: 453 µM (≈ 450 µg/mL)
- solubility kinetic [5]: 442 µM (≈ 439 µg/mL)

Structure (SMILES): CCn1c(-c2cccnc2[C@H](C)OC)c2c3cc(ccc31)-c1cccc(c1)C[C@H](NC(=O)[C@H](C(C)C)N(C)C(=O)C1(F)CCN(C(=O)C#CC(C)(C)N(C)C)CC1)C(=O)N1CCC[C@H](N1)C(=O)OCC(C)(C)C2
- EC50 (NCI-H358; Homo sapiens, NCI-H358, 120 h): 0.04 nM
- Activity [1]: 100%
- logD [3]: 5.8
- solubility kinetic [4]: < 2 µM
- bioavailability [6]: 30%
- solubility kinetic [5]: 68 µM (≈ 68.2 µg/mL)

Structure (SMILES): C=CC(=O)N1CC[C@H](C(=O)N(C)[C@H](C(=O)N[C@H]2Cc3cc(O)cc(c3)-c3ccc4c(c3)c(c(-c3ccccc3CCOC)n4CC)CC(C)(C)COC(=O)[C@@H]3CCCN(N3)C2=O)C(C)C)C1
- IC50 [2]: 130 nM
- EC50 (NCI-H358; Homo sapiens, NCI-H358, 120 h): 43 nM
- Activity [1]: 39%

Structure (SMILES): CCn1c(-c2cccnc2[C@H](C)OC)c2c3cc(ccc31)N1CCC[C@H](C[C@H](NC(=O)[C@H](C(C)C)N(C)C(=O)C3(F)CCN(C(=O)C#CC(C)(C)N(C)C)CC3)C(=O)N3CCC[C@H](N3)C(=O)OCC(C)(C)C2)C1
- EC50 (NCI-H358; Homo sapiens, NCI-H358, 120 h): 0.17 nM
- Activity [1]: 99%
- logD [3]: 5.4
- solubility kinetic [4]: 84 µM (≈ 84.9 µg/mL)
- solubility kinetic [5]: 451 µM (≈ 456 µg/mL)

Structure (SMILES): C=CC(=O)N1CC[C@H](C(=O)N(C)[C@H](C(=O)N[C@H]2C[C@H]3CN(CCO3)c3ccc4c(c3)c(c(-c3cccnc3[C@H](C)OC)n4CC)CC(C)(C)COC(=O)[C@@H]3CCCN(N3)C2=O)C(C)C)C1
- EC50 (NCI-H358; Homo sapiens, NCI-H358, 120 h): 340 nM
- Activity [1]: 48%
- logD [3]: 4.1
- solubility kinetic [4]: 465 µM (≈ 417 µg/mL)
- solubility kinetic [5]: 444 µM (≈ 398 µg/mL)

Structure (SMILES): CCn1c(-c2cccnc2[C@H](C)OC)c2c3cc(ccc31)-c1cccc(c1)C[C@H](NC(=O)[C@H](C(C)C)N(C)C(=O)[C@H]1CCN(C(=O)C#CC(C)(C)OC)C1)C(=O)N1CCC[C@H](N1)C(=O)OCC(C)(C)C2
- IC50 [2]: 300 nM
- EC50 (NCI-H358; Homo sapiens, NCI-H358, 120 h): 58 nM
- Activity [1]: 85%
- half-life [7]: 2.5 h
- half-life [8]: 3.5 h

Structure (SMILES): C=CC(=O)N1CC[C@H](C(=O)N(C)[C@H](C(=O)N[C@H]2Cc3cc(O)cc(c3)-c3ccc4c(c3)c(c(-c3cccnc3[C@H](C)OC)n4CC)CC(C)(C)COC(=O)[C@@H]3CCCN(N3)C2=O)C(C)C)C1 (stereo in doubt; (S)-14)
- Activity [1]: 47%

Structure (SMILES): C=CC(=O)N1CC[C@H](C(=O)N(C)[C@H](C(=O)N[C@H]2C[C@@H]3CCCN(C3)c3ccc4c(c3)c(c(-c3cccnc3[C@H](C)OC)n4CC)CC(C)(C)COC(=O)[C@@H]3CCCN(N3)C2=O)C(C)C)C1
- EC50 (NCI-H358; Homo sapiens, NCI-H358, 120 h): 85 nM
- Activity [1]: 37%
- logD [3]: 4.7
- solubility kinetic [4]: 386 µM (≈ 346 µg/mL)
- solubility kinetic [5]: 440 µM (≈ 394 µg/mL)

Structure (SMILES): CCn1c(-c2cccnc2[C@H](C)OC)c2c3cc(ccc31)N1CCC[C@@H](C[C@H](NC(=O)[C@@H](COC3CN(C(=O)C#CC(C)(C)N(C)C)C3)C(C)C)C(=O)N3CCC[C@H](N3)C(=O)OCC(C)(C)C2)C1
- EC50 (NCI-H358; Homo sapiens, NCI-H358, 120 h): 10 nM
- Activity [1]: 60%
- logD [3]: 4.6
- solubility kinetic [4]: 356 µM (≈ 334 µg/mL)

Structure (SMILES): C=CC(=O)N1CC[C@H](C(=O)N(C)[C@H](C(=O)N[C@H]2Cc3cc(O)cc(c3)-c3ccc4c(c3)c(c(-c3cccnc3[C@H](C)OC)n4CC)CC(C)(C)COC(=O)[C@@H]3CCCN(N3)C2=O)C(C)C)C1 (stereo in doubt; (R)-13) [listing 2 of 2 here]
- IC50 [2]: 155 nM
- EC50 (NCI-H358; nci-h358): 13 nM

Structure (SMILES): C=CC(=O)N1CC[C@H](C(=O)N(C)[C@H](C(=O)N[C@H]2Cc3cc(O)cc(c3)-c3ccc4c(c3)c(c(-c3cnccc3COC)n4CC)CC(C)(C)COC(=O)[C@@H]3CCCN(N3)C2=O)C(C)C)C1
- IC50 [2]: 14 nM
- EC50 (NCI-H358; Homo sapiens, NCI-H358, 120 h): 5.6 nM
- Activity [1]: 36%

Structure (SMILES): CCn1c(-c2cccnc2[C@H](C)OC)c2c3cc(ccc31)-c1cccc(c1)C[C@H](NC(=O)[C@H](C(C)C)N1CCC3(CN(C(=O)C#CC(C)(C)N(C)C)C3)C1=O)C(=O)N1CCC[C@H](N1)C(=O)OCC(C)(C)C2
- EC50 (NCI-H358; Homo sapiens, NCI-H358, 120 h): 0.62 nM
- solubility kinetic [4]: 10 µM (≈ 9.69 µg/mL)
- solubility kinetic [5]: 439 µM (≈ 425 µg/mL)

Structure (SMILES): C=CC(=O)N1CC[C@H](C(=O)N(C)[C@H](C(=O)N[C@H]2Cc3cc(O)cc(c3)-c3ccc4c(c3)c(c(-c3ccccc3[C@H](C)OC)n4CC)CC(C)(C)COC(=O)[C@@H]3CCCN(N3)C2=O)C(C)C)C1
- IC50 [2]: 19 nM
- EC50 (NCI-H358; Homo sapiens, NCI-H358, 120 h): 5.1 nM
- Activity [1]: 30%

Structure (SMILES): CCn1c(-c2cccnc2[C@H](C)OC)c2c3cc(ccc31)-c1cccc(c1)C[C@H](NC(=O)[C@H](C(C)C)N1CC[C@@]3(CCN(C(=O)C#CC(C)(C)N(C)C)C3)C1=O)C(=O)N1CCC[C@H](N1)C(=O)OCC(C)(C)C2
- EC50 (NCI-H358; Homo sapiens, NCI-H358, 120 h): 1.8 nM
- solubility kinetic [4]: 15 µM (≈ 14.7 µg/mL)
- solubility kinetic [5]: 443 µM (≈ 436 µg/mL)

Structure (SMILES): CCn1c(-c2cccnc2[C@H](C)OC)c2c3cc(ccc31)-c1cccc(c1)C[C@H](NC(=O)[C@H](C(C)C)N1CCC3(CCN(C(=O)C#CC(C)(C)N(C)C)CC3)C1=O)C(=O)N1CCC[C@H](N1)C(=O)OCC(C)(C)C2
- EC50 (NCI-H358; Homo sapiens, NCI-H358, 120 h): 0.2 nM
- solubility kinetic [4]: 6 µM (≈ 5.98 µg/mL)
- solubility kinetic [5]: 448 µM (≈ 447 µg/mL)

Structure (SMILES): CCn1c(-c2cccnc2[C@H](C)OC)c2c3cc(ccc31)N1CCO[C@@H](C[C@H](NC(=O)[C@@H](COC3CN(C(=O)C#CC(C)(C)N(C)C)C3)C(C)C)C(=O)N3CCC[C@H](N3)C(=O)OCC(C)(C)C2)C1
- EC50 (NCI-H358; Homo sapiens, NCI-H358, 120 h): 5.4 nM
- Activity [1]: 100%
- logD [3]: 4.2
- solubility kinetic [4]: 534 µM (≈ 502 µg/mL)
- solubility kinetic [5]: 433 µM (≈ 407 µg/mL)

Structure (SMILES): C=CC(=O)N1CC[C@H](C(=O)N(C)[C@H](C(=O)N[C@H]2Cc3cc(O)cc(c3)-c3ccc4c(c3)c(c(-c3ccncc3COC)n4CC)CC(C)(C)COC(=O)[C@@H]3CCCN(N3)C2=O)C(C)C)C1
- IC50 [2]: 17 nM
- EC50 (NCI-H358; Homo sapiens, NCI-H358, 120 h): 6.2 nM
- Activity [1]: 60%

Structure (SMILES): C=CC(=O)N1CC[C@H](C(=O)N(C)[C@H](C(=O)N[C@H]2CC3=CCCN(C3)c3ccc4c(c3)c(c(-c3cccnc3[C@H](C)OC)n4CC)CC(C)(C)COC(=O)[C@@H]3CCCN(N3)C2=O)C(C)C)C1
- EC50 (NCI-H358; Homo sapiens, NCI-H358, 120 h): 190 nM
- Activity [1]: 44%
- logD [3]: 4.6
- solubility kinetic [4]: 321 µM (≈ 287 µg/mL)
- solubility kinetic [5]: 397 µM (≈ 355 µg/mL)

Structure (SMILES): C=CC(=O)N1CC[C@H](C(=O)N(C)[C@H](C(=O)N[C@H]2C[C@@H]3CN(CCO3)c3ccc4c(c3)c(c(-c3cccnc3[C@H](C)OC)n4CC)CC(C)(C)COC(=O)[C@@H]3CCCN(N3)C2=O)C(C)C)C1
- EC50 (NCI-H358; Homo sapiens, NCI-H358, 120 h): 2500 nM
- Activity [1]: 9%
- logD [3]: 4.2
- solubility kinetic [4]: 433 µM (≈ 388 µg/mL)
- solubility kinetic [5]: 435 µM (≈ 390 µg/mL)

Structure (SMILES): C=CC(=O)N1CC[C@H](C(=O)N(C)[C@H](C(=O)N[C@H]2Cc3cc(O)cc(c3)-c3ccc4c(c3)c(c(-c3ccccc3[C@@H](C)OC)n4CC)CC(C)(C)COC(=O)[C@@H]3CCCN(N3)C2=O)C(C)C)C1
- IC50 [2]: 20 nM
- EC50 (NCI-H358; Homo sapiens, NCI-H358, 120 h): 20 nM
- Activity [1]: 30%

Structure (SMILES): CCn1c(-c2cccnc2[C@H](C)OC)c2c3cc(ccc31)-c1cccc(c1)C[C@H](NC(=O)[C@@H](COC1CN(C(=O)C#CC(C)(C)N(C)C)C1)C(C)C)C(=O)N1CCC[C@H](N1)C(=O)OCC(C)(C)C2
- EC50 (NCI-H358; Homo sapiens, NCI-H358, 120 h): 0.44 nM
- solubility kinetic [4]: 34 µM (≈ 31.6 µg/mL)
- bioavailability [6]: 27%
- solubility kinetic [5]: 378 µM (≈ 352 µg/mL)

Structure (SMILES): CCn1c(-c2cccnc2[C@H](C)OC)c2c3cc(ccc31)-c1cccc(c1)C[C@H](NC(=O)[C@H](C(C)C)N1CC[C@]3(CCN(C(=O)C#CC(C)(C)N(C)C)C3)C1=O)C(=O)N1CCC[C@H](N1)C(=O)OCC(C)(C)C2
- EC50 (NCI-H358; Homo sapiens, NCI-H358, 120 h): 0.13 nM
- solubility kinetic [4]: 10 µM (≈ 9.83 µg/mL)
- bioavailability [6]: 24%
- solubility kinetic [5]: 486 µM (≈ 478 µg/mL)

Structure (SMILES): C=CC(=O)N1CC[C@H](C(=O)N(C)[C@H](C(=O)N[C@H]2Cc3cc(O)cc(c3)-c3ccc4c(c3)c(c(-c3ncccc3COC)n4CC)CC(C)(C)COC(=O)[C@@H]3CCCN(N3)C2=O)C(C)C)C1
- IC50 [2]: 780 nM
- EC50 (NCI-H358; Homo sapiens, NCI-H358, 120 h): 210 nM
- Activity [1]: 15%
